# Calls of active or inactive are those of the source. The rule behind the calls is not given here.
# Legend:
# [1] = tested on: HCT-116; experiment: Induction of apoptosis in human HCT-116 cells assessed as increase in Bax/Bcl2 ratio incubated for 48 hrs by Western blotting analysis; type: functional, cell-based; conditions: dose 2.5-5 mM
# [2] = tested on: HCT-116; experiment: Induction of apoptosis in human HCT-116 cells assessed as necrotic cells at 1.25 mM incubated for 48 hrs by Annexin V-FITC/PI staining based flow cytometric analysis (reference value: 0.16 %); type: functional
# [3] = tested on: HCT-116; experiment: Induction of apoptosis in human HCT-116 cells assessed as early apoptotic cells at 2.5 mM incubated for 48 hrs by Annexin V-FITC/PI staining based flow cytometric analysis (reference value: 55.2 %); type: functional
# [4] = tested on: HCT-116; experiment: Induction of cell cycle arrest in human HCT-116 cells assessed as accumulation of cells at G2/M phase at 2.5 mM incubated for 48 hrs by PI staining based flow cytometric analysis (reference value: 14 %); type: functional
# [5] = tested on: HCT-116; experiment: Induction of apoptosis in human HCT-116 cells assessed as necrotic cells at 2.5 mM incubated for 48 hrs by Annexin V-FITC/PI staining based flow cytometric analysis (reference value: 0.16 %); type: functional
# [6] = tested on: HCT-116; experiment: Induction of morphological changes in human HCT-116 cells assessed as appearance of freely floating cells at 10 mM incubated for 24 to 72 hrs by inverted microscopic analysis; type: functional, cell-based; conditions: time 24-72 hrs
# [7] = tested on: HCT-116; experiment: Induction of cell cycle arrest in human HCT-116 cells assessed as accumulation of cells at G0/G1 phase at 5 mM incubated for 48 hrs by PI staining based flow cytometric analysis (reference value: 74.6 %); type: functional
# [8] = tested on: HCT-116; experiment: Cytotoxicity against human HCT-116 cells assessed as reduction in cell viability at 10 mM incubated for 48 hrs by MTT assay (reference value: 100%); type: functional
# [9] = tested on: HCT-116; experiment: Induction of apoptosis in human HCT-116 cells assessed as early apoptotic cells at 5 mM incubated for 48 hrs by Annexin V-FITC/PI staining based flow cytometric analysis (reference value: 55.2 %); type: functional
# [10] = tested on: HCT-116; experiment: Induction of morphological changes in human HCT-116 cells assessed as change in cell shape at 2.5 to 10 mM incubated for 24 to 72 hrs by inverted microscopic analysis; type: functional, cell-based; conditions: dose 2.5-10 mM, time 24-72 hrs
# [11] = tested on: HCT-116; experiment: Induction of apoptosis in human HCT-116 cells assessed as late apoptotic cells at 10 mM incubated for 48 hrs by Annexin V-FITC/PI staining based flow cytometric analysis (reference value: 2.13 %); type: functional
# [12] = tested on: HCT-116; experiment: Induction of apoptosis in human HCT-116 cells assessed as increase in apoptotic rate at 10 mM incubated for 48 hrs by Annexin V-FITC/PI staining based flow cytometric analysis relative to control; type: functional
# [13] = tested on: HCT-116; experiment: Induction of apoptosis in human HCT-116 cells assessed as late apoptotic cells at 2.5 mM incubated for 48 hrs by Annexin V-FITC/PI staining based flow cytometric analysis (reference value: 2.13 %); type: functional
# [14] = tested on: HCT-116; experiment: Induction of cell cycle arrest in human HCT-116 cells assessed as accumulation of cells at G2/M phase at 10 mM incubated for 48 hrs by PI staining based flow cytometric analysis (reference value: 14 %); type: functional
# [15] = tested on: HCT-116; experiment: Induction of morphological changes in human HCT-116 cells assessed as rounding of cells at 2.5 to 10 mM incubated for 24 to 72 hrs by inverted microscopic analysis; type: functional, cell-based; conditions: dose 2.5-10 mM, time 24-72 hrs
# [16] = tested on: HCT-116; experiment: Induction of cell cycle arrest in human HCT-116 cells assessed as accumulation of cells at G0/G1 phase at 1.25 mM incubated for 48 hrs by PI staining based flow cytometric analysis (reference value: 74.6 %); type: functional
# [17] = tested on: HCT-116; experiment: Induction of apoptosis in human HCT-116 cells assessed as late apoptotic cells at 1.25 mM incubated for 48 hrs by Annexin V-FITC/PI staining based flow cytometric analysis (reference value: 2.13 %); type: functional
# [18] = tested on: HCT-116; experiment: Cytotoxicity against human HCT-116 cells assessed as reduction in ATP level at 0.25 to 10 mM by CellTiter-Glo assay; type: functional, cell-based; conditions: dose 0.25-10 mM, time 24-72 hrs
# [19] = tested on: HCT-116; experiment: Induction of cell cycle arrest in human HCT-116 cells assessed as accumulation of cells at G0/G1 phase at 2.5 mM incubated for 48 hrs by PI staining based flow cytometric analysis (reference value: 74.6 %); type: functional
# [20] = tested on: HCT-116; experiment: Induction of morphological changes in human HCT-116 cells assessed as appearance of lobules at 2.5 to 10 mM incubated for 24 to 72 hrs by inverted microscopic analysis; type: functional, cell-based; conditions: dose 2.5-10 mM, time 24-72 hrs
# [21] = tested on: HCT-116; experiment: Induction of apoptosis in human HCT-116 cells assessed as increase in apoptotic rate at 1.25 mM incubated for 48 hrs by Annexin V-FITC/PI staining based flow cytometric analysis relative to control; type: functional
# [22] = tested on: HCT-116; experiment: Induction of cell cycle arrest in human HCT-116 cells assessed as accumulation of cells at G2/M phase at 1.25 mM incubated for 48 hrs by PI staining based flow cytometric analysis (reference value: 14 %); type: functional
# [23] = tested on: HCT-116; experiment: Induction of apoptosis in human HCT-116 cells assessed as early apoptotic cells at 1.25 mM incubated for 48 hrs by Annexin V-FITC/PI staining based flow cytometric analysis (reference value: 55.2 %); type: functional
# [24] = tested on: HCT-116; experiment: Induction of ROS generation in human HCT-116 cells assessed as increase in superoxide anion at 1.25 to 10 mM incubated for 48 hrs by DHE fluorescence based analysis; type: functional, cell-based; conditions: dose 1.25-10 mM
# [25] = tested on: HCT-116; experiment: Induction of apoptosis in human HCT-116 cells assessed as viable cells at 10 mM incubated for 48 hrs by Annexin V-FITC/PI staining based flow cytometric analysis (reference value: 42.5 %); type: functional; conditions: HCT-116, 48 h, read-out: Activity
# [26] = tested on: CCD-841CoN; experiment: Cytotoxicity against human CCD-841CoN cells at 0.25 to 10 mM incubated for 24 to 48 hrs by MTT assay; type: toxicity, cell-based; conditions: 10000 µM, dose lower 0.25 mM, time lower 24 hrs, dose upper 10 mM, time upper 48 hrs
# [27] = tested on: HCT-116; experiment: Induction of apoptosis in human HCT-116 cells assessed as early apoptotic cells at 10 mM incubated for 48 hrs by Annexin V-FITC/PI staining based flow cytometric analysis (reference value: 55.2 %); type: functional
# [28] = tested on: HCT-116; experiment: Induction of cell cycle arrest in human HCT-116 cells assessed as accumulation of cells at G2/M phase at 5 mM incubated for 48 hrs by PI staining based flow cytometric analysis (reference value: 14 %); type: functional
# [29] = tested on: HCT-116; experiment: Induction of apoptosis in human HCT-116 cells assessed as viable cells at 5 mM incubated for 48 hrs by Annexin V-FITC/PI staining based flow cytometric analysis (reference value: 42.5 %); type: functional; conditions: HCT-116, 48 h, read-out: Activity
# [30] = tested on: CCD-841CoN; experiment: Cytotoxicity against human CCD-841CoN cells at 10 mM incubated for 72 hrs by MTT assay; type: toxicity, cell-based; conditions: 10000 µM
# [31] = tested on: HCT-116; experiment: Induction of cell cycle arrest in human HCT-116 cells assessed as accumulation of cells at S phase at 10 mM incubated for 48 hrs by PI staining based flow cytometric analysis (reference value: 10 %); type: functional
# [32] = tested on: HCT-116; experiment: Inhibition of colony formation in human HCT-116 cells at 0.25 to 10 mM incubated for 10 days by crystal violet staining based analysis; type: functional, cell-based; conditions: dose 0.25-10 mM, time 10.0 day
# [33] = tested on: HCT-116; experiment: Induction of morphological changes in human HCT-116 cells assessed as rupture of plasma membrane at 2.5 to 10 mM incubated for 24 to 72 hrs by inverted microscopic analysis; type: functional, cell-based; conditions: dose 2.5-10 mM, time 24-72 hrs
# [34] = tested on: HCT-116; experiment: Induction of cell cycle arrest in human HCT-116 cells assessed as accumulation of cells at S phase at 2.5 mM incubated for 48 hrs by PI staining based flow cytometric analysis (reference value: 10 %); type: functional
# [35] = tested on: HCT-116; experiment: Induction of apoptosis in human HCT-116 cells assessed as necrotic cells at 5 mM incubated for 48 hrs by Annexin V-FITC/PI staining based flow cytometric analysis (reference value: 0.16 %); type: functional
# [36] = tested on: HCT-116; experiment: Induction of apoptosis in human HCT-116 cells assessed as increase in apoptotic rate at 2.5 mM incubated for 48 hrs by Annexin V-FITC/PI staining based flow cytometric analysis relative to control; type: functional
# [37] = tested on: HCT-116; experiment: Induction of cell cycle arrest in human HCT-116 cells assessed as accumulation of cells at S phase at 5 mM incubated for 48 hrs by PI staining based flow cytometric analysis (reference value: 10 %); type: functional
# [38] = tested on: HCT-116; experiment: Induction of cell cycle arrest in human HCT-116 cells assessed as accumulation of cells at G0/G1 phase at 10 mM incubated for 48 hrs by PI staining based flow cytometric analysis (reference value: 74.6 %); type: functional
# [39] = tested on: HCT-116; experiment: Induction of apoptosis in human HCT-116 cells assessed as late apoptotic cells at 5 mM incubated for 48 hrs by Annexin V-FITC/PI staining based flow cytometric analysis (reference value: 2.13 %); type: functional
# [40] = tested on: HCT-116; experiment: Induction of cell cycle arrest in human HCT-116 cells assessed as accumulation of cells at S phase at 1.25 mM incubated for 48 hrs by PI staining based flow cytometric analysis (reference value: 10 %); type: functional
# [41] = tested on: HCT-116; experiment: Induction of apoptosis in human HCT-116 cells assessed as viable cells at 1.25 mM incubated for 48 hrs by Annexin V-FITC/PI staining based flow cytometric analysis (reference value: 42.5 %); type: functional; conditions: HCT-116, 48 h, read-out: Activity
# [42] = tested on: HCT-116; experiment: Induction of morphological changes in human HCT-116 cells assessed as blebbing of cells at 2.5 to 10 mM incubated for 24 to 72 hrs by inverted microscopic analysis; type: functional, cell-based; conditions: dose 2.5-10 mM, time 24-72 hrs
# [43] = tested on: HCT-116; experiment: Induction of apoptosis in human HCT-116 cells assessed as increase in apoptotic rate at 5 mM incubated for 48 hrs by Annexin V-FITC/PI staining based flow cytometric analysis relative to control; type: functional
# [44] = tested on: HCT-116; experiment: Cytotoxicity against human HCT-116 cells assessed as reduction in ATP level incubated for 24 to 72 hrs by CellTiter-Glo assay; type: functional, cell-based; conditions: dose 0.25-10 mM, time 24-72 hrs
# [45] = tested on: HCT-116; experiment: Cytotoxicity against human HCT-116 cells assessed as reduction in cell viability at 10 mM incubated for 72 hrs by MTT assay (reference value: 100%); type: functional
# [46] = tested on: HCT-116; experiment: Induction of apoptosis in human HCT-116 cells assessed as necrotic cells at 10 mM incubated for 48 hrs by Annexin V-FITC/PI staining based flow cytometric analysis (reference value: 0.16 %); type: functional
# [47] = tested on: HCT-116; experiment: Cytotoxicity against human HCT-116 cells assessed as reduction in cell viability at 10 mM incubated for 24 hrs by MTT assay (reference value: 100%); type: functional
# [48] = tested on: HCT-116; experiment: Induction of morphological changes in human HCT-116 cells assessed as appearance of disorganized cell layers at 2.5 to 10 mM incubated for 24 to 72 hrs by inverted microscopic analysis; type: functional, cell-based; conditions: dose 2.5-10 mM, time 24-72 hrs
# [49] = tested on: HCT-116; experiment: Induction of apoptosis in human HCT-116 cells assessed as viable cells at 2.5 mM incubated for 48 hrs by Annexin V-FITC/PI staining based flow cytometric analysis (reference value: 42.5 %); type: functional; conditions: HCT-116, 48 h, read-out: Activity
smiles,measurement,setting,value
CCc1ccc(OS(=O)(=O)O)cc1,Activity,[1],Dose-dependent-effect
same,Activity,[2],0.048%
same,Activity,[3],70.1%
same,Activity,[4],19.7%
same,Activity,[5],0.065%
same,Activity,[6],Active
same,Activity,[7],59.6%
same,Activity,[8],24%
same,Activity,[9],71.9%
same,Activity,[10],Active
same,Activity,[11],50.8%
same,Activity,[12],97%
same,Activity,[13],7.36%
same,Activity,[14],27.2%
same,Activity,[15],Active
same,Activity,[16],70.8%
same,Activity,[17],3.78%
same,Activity,[18],Time-dependent-effect
same,Activity,[19],64%
same,Activity,[20],Active
same,Activity,[21],52%
same,Activity,[22],19.7%
same,Activity,[23],68.6%
same,Activity,[24],Active
same,viability at 10000 µM,[25],0.84%
same,Activity,[26],Non-toxic
same,Activity,[27],48.3%
same,Activity,[28],29.8%
same,viability at 5000 µM,[29],8.22%
same,Activity,[30],Non-toxic
same,Activity,[31],13.5%
same,inhibition,[32],Active
same,Activity,[33],Active
same,Activity,[34],15.4%
same,Activity,[35],0.076%
same,Activity,[36],73%
same,Activity,[37],9.8%
same,Activity,[38],55.4%
same,Activity,[39],19.8%
same,Activity,[40],9%
same,viability at 1250 µM,[41],27.6%
same,Activity,[42],Active
same,Activity,[43],81%
same,Activity,[44],Dose-dependent-effect
same,Activity,[45],7%
same,Activity,[46],0.067%
same,Activity,[47],55%
same,Activity,[48],Active
same,viability at 2500 µM,[49],22.5%

# Reference: ChEMBL document CHEMBL6178000, “Gut Microbial Metabolite 4-Ethylphenylsulfate Is Selectively Deleterious and Anticancer to Colon Cancer Cells” (J Med Chem, 2025)
